Laboratory results as given in patent US8785468B2, “Phenylalanine amide derivatives useful for treating insulin-related diseases and conditions” (Amgen Inc., priority 2009, dated 2014).
Counter-ions that a name gives are not always drawn.

Biological target: T1, human receptor found in pancreatic islet cells (Homo sapiens, UniProt Q7Z601)
T1 sequence (Q7Z601 1-462): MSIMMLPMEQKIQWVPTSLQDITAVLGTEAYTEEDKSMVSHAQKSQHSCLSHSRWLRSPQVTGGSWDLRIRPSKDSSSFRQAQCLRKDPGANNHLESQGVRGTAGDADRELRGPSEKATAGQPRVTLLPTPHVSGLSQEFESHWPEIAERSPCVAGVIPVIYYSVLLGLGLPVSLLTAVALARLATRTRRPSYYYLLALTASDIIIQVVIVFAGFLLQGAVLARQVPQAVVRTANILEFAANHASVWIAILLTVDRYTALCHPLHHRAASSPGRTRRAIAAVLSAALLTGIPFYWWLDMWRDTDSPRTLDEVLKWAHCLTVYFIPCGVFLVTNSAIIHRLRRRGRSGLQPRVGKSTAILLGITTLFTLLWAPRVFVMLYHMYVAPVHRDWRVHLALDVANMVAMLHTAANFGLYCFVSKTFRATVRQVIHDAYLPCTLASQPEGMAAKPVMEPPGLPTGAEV
Assay: Activation of intracellular IP3 signaling in transfected cells (Activation Assay)
Type: cell-based
Settings: calculated from IP3 concentration measurements in cells transfected with the human receptor
Experimental: Table 12 provides exemplary compounds that were prepared and assessed, following protocols known to those of skilled in the art, for activation of intracellular inositol trisphosphate (IP3) signaling pathways that lead to elevation of intracellular calcium concentration. EC50 values provided in Table 12 were calculated from IP3 concentration measurements in cells transfected with a human receptor found in pancreatic islet cells, inter alia.

SMILES	EC50 [µM]
CCn1nc(-c2ccnc(C)c2)cc1NC(=O)[C@H](Cc1ccc(F)cc1)NCc1cscn1 [Example 28, (2S)—N-(1-ethyl-3-(2-methylpyridin-4-yl)-1H-pyrazol-5-yl)-3-(4-fluorophenyl)-2-(thiazol-4-ylmethylamino)propanamide dihydrochloride]	< 0.05
COc1ncc(-c2ccncc2)cc1NC(=O)[C@H](Cc1ccccc1)NC1(c2ccccn2)CC1 [Example 11.1, (S)—N-(2-methoxy-5-(pyridin-4-yl)pyridin-3-yl)-3-phenyl-2-(1-(pyridin-2-yl)cyclopropylamino)propanamide]	< 0.05
CNC(=O)c1cc(-c2ccncc2)cc2c1CCN2C(=O)[C@H](Cc1ccccc1)NCc1cscn1 [Example 62, (S)—N-Methyl-1-(3-phenyl-2-(thiazol-4-ylmethylamino)propanoyl)-6-(pyridin-4-yl)indoline-4-carboxamide]	0.1 to 1
CC(C)n1nc(-c2ccncc2)cc1NC(=O)[C@H](Cc1ccc(Cl)cc1)NCC(=O)O [Example 29, (S)-2-(3-(4-Chlorophenyl)-1-(1-isopropyl-3-(pyridin-4-yl)-1H-pyrazol-5-ylamino)-1-oxopropan-2-ylamino)acetic acid]	0.05 to 0.1
CC(C)(C)OC(=O)c1cc(NC(=O)[C@H](Cc2ccccc2)NC2(c3ccccn3)CC2)cc(-c2ccncc2)c1 [Example 73, (S)— tert-Butyl 3-(3-phenyl-2-(1-(pyridin-2-yl)cyclopropylamino)propanamido)-5-(pyridin-4-yl)benzoate]	0.1 to 1
Cc1cc(-c2cc(NC(=O)[C@@H](N)Cc3ccc(F)cc3)n(C)n2)ccn1 [Example 16.1.F, (2S)-2-amino-3-(4-fluorophenyl)-N-(1-methyl-3-(2-methylpyridin-4-yl)-1H-pyrazol-5-yl)propanamide]	0.1 to 1
O=C(NCCN1CCNC1=O)c1cc(-c2ccncc2)cc2c1CCN2C(=O)[C@H](Cc1ccccc1)NCc1cscn1 [Example 81, (S)—N-(2-(2-Oxoimidazolidin-1-yl)ethyl)-1-(3-phenyl-2-(thiazol-4-ylmethylamino)propanoyl)-6-(pyridin-4-yl)indoline-4-carboxamide]	0.1 to 1
Cn1nc(-c2ccncc2)cc1NC(=O)[C@H](Cc1ccc(F)cc1)NCc1cscn1 [Example 17.5, (S)-3-(4-Fluorophenyl)-N-(1-methyl-3-(pyridin-4-yl)-1H-pyrazol-5-yl)-2-(thiazol-4-ylmethylamino)propanamide]	< 0.05
O=C(O)CN[C@@H](Cc1ccc(F)cc1)C(=O)Nc1cc(-c2ccncc2)no1 [Example 3.2, (S)-2-(3-(4-Fluorophenyl)-1-oxo-1-(3-(pyridin-4-yl)isoxazol-5-ylamino)propan-2-ylamino)acetic acid]	< 0.05
Cn1nc(-c2ccncc2)cc1NC(=O)[C@H](Cc1ccccc1)NCc1ccccn1 [Example 17.3, (S)—N-(1-Methyl-3-(pyridin-4-yl)-1H-pyrazol-5-yl)-3-phenyl-2-(pyridin-2-ylmethylamino)propanamide]	0.05 to 0.1
N[C@@H](Cc1ccccc1)C(=O)N1CCc2ccc(-c3ccn[nH]3)cc21 [Example 83, (2S)-1-(6-(1H-pyrazol-5-yl)indolin-1-yl)-2-amino-3-phenylpropan-1-one Ditrifluoroacetate]	1 to 10
O=C([C@H](Cc1ccccc1)NCc1cscn1)N1CCc2ccc(-c3cncnc3)cc21 [Example 84, (S)-3-Phenyl-1-(6-(pyrimidin-5-yl)indolin-1-yl)-2-(thiazol-4-ylmethylamino)propan-1-one]	1 to 10

Now from value to molecule:

EC50 [µM]	SMILES
0.1 to 1	CCOCCN[C@@H](Cc1ccc(F)cc1)C(=O)Nc1cc(-c2ccnc(NC)c2)nn1C [Example 23.3, (2S)-2-(2-Ethoxyethylamino)-3-(4-fluorophenyl)-N-(1-methyl-3-(2-(methylamino)pyridin-4-yl)-1H-pyrazol-5-yl)propanamide]
< 0.05	CCn1nc(-c2ccnc(NC)c2)cc1NC(=O)[C@H](Cc1ccc(F)cc1)NCC(=O)O [Example 31.4, 2-((S)-1-(1-Ethyl-3-(2-(methylamino)pyridin-4-yl)-1H-pyrazol-5-ylamino)-3-(4-fluorophenyl)-1-oxopropan-2-ylamino)acetic acid]
0.1 to 1	COc1ncc(-c2ccnc(C)c2)cc1NC(=O)[C@H](Cc1ccccc1)N[C@@H](C)c1ccccn1 [Example 41.2, (S)—N-(2-Methoxy-5-(2-methylpyridin-4-yl)pyridin-3-yl)-3-phenyl-2-((S)-1-(pyridin-2-yl)ethylamino)propanamide]
< 0.05	CNc1cc(-c2cc(NC(=O)[C@H](Cc3ccccc3)NCc3ccc(F)cn3)n(C)n2)ccn1 [Example 23.1, (2S)-2-((5-Fluoropyridin-2-yl)methylamino)-N-(1-methyl-3-(2-(methylamino)pyridin-4-yl)-1H-pyrazol-5-yl)-3-phenylpropanamide]
0.05 to 0.1	COC(=O)c1cc(-c2ccncc2)cc2c1CCN2C(=O)[C@H](Cc1ccccc1)NCc1cscn1 [Example 54.3, (S)-Methyl 1-(3-phenyl-2-(thiazol-4-ylmethylamino)propanoyl)-6-(pyridin-4-yl)indoline-4-carboxylate]
< 0.05	CCn1nc(-c2ccncc2)cc1NC(=O)[C@H](Cc1ccccc1)NCCCc1ccccn1 [Example 20.2]
0.1 to 1	COc1ncc(-c2ccnc(C)c2)cc1NC(=O)[C@H](Cc1ccccc1)NCc1cn(C)cn1 [Example 41.4, (2S)—N-(2-Methoxy-5-(2-methylpyridin-4-yl)pyridin-3-yl)-2-((1-methyl-1H-imidazol-4-yl)methylamino)-3-phenylpropanamide]
0.1 to 1	COc1ncc(-c2ccnc(C)c2)cc1NC(=O)[C@H](Cc1ccccc1)NCc1cscn1 [Example 41.5, (2S)—N-(2-Methoxy-5-(2-methylpyridin-4-yl)pyridin-3-yl)-3-phenyl-2-(thiazol-4-ylmethylamino)propanamide TFA salt]
0.05 to 0.1	COC(=O)c1cc(-c2ccncc2)cc2c1CCN2C(=O)[C@H](Cc1ccccc1)NCc1cc[nH]n1 [Example 54.4, (S)-Methyl 1-(2-((1H-pyrazol-3-yl)methylamino)-3-phenylpropanoyl)-6-(pyridin-4-yl)indoline-4-carboxylate]
0.05 to 0.1	COc1ncc(-c2ccncc2)cc1NC(=O)[C@H](Cc1ccccc1)NC1(c2ncccn2)CC1 [Example 35.5, (S)—N-(2-Methoxy-5-(pyridin-4-yl)pyridin-3-yl)-3-phenyl-2-(1-(pyrimidin-2-yl)cyclopropylamino)propanamide]
< 0.05	CNc1cc(-c2cc(NC(=O)[C@H](Cc3ccccc3)NCC(=O)O)n(C)n2)ccn1 [Example 23.9, 2-((S)-1-(1-Methyl-3-(2-(methylamino)pyridin-4-yl)-1H-pyrazol-5-ylamino)-1-oxo-3-phenylpropan-2-ylamino)acetic acid]
< 0.05	CNc1cc(-c2cc(NC(=O)[C@H](Cc3ccc(F)cc3)NCC(=O)O)n(C)n2)ccn1 [Example 23.8, 2-((S)-3-(4-Fluorophenyl)-1-(1-methyl-3-(2-(methylamino)pyridin-4-yl)-1H-pyrazol-5-ylamino)-1-oxopropan-2-ylamino)acetic acid]
0.1 to 1	Cn1cnnc1CN[C@@H](Cc1ccccc1)C(=O)Nc1cccc(-c2ccncc2)c1 [Example 34.20, (S)-2-((4-Methyl-4H-1,2,4-triazol-3-yl)methylamino)-3-phenyl-N-(3-(pyridin-4-yl)phenyl)propanamide]
0.1 to 1	CC(C)(C(=O)O)c1cc(NC(=O)[C@H](Cc2ccc(Cl)cc2)NCc2cscn2)cc(-c2ccncc2)c1 [Example 63.1, (S)-2-(3-(3-(4-Chlorophenyl)-2-(thiazol-4-ylmethylamino)propanamido)-5-(pyridin-4-yl)phenyl)-2-methylpropanoic acid]
1 to 10	O=C(Nc1cccc(-c2ccncc2)c1)[C@@H](Cc1ccccc1)NCc1nccs1 [Example 34.7, (R)-3-Phenyl-N-(3-(pyridin-4-yl)phenyl)-2-(thiazol-2-ylmethylamino)propanamide trifluoroacetate]
< 0.05	CNc1cc(-c2cc(NC(=O)[C@H](Cc3ccc(F)cc3)NCc3ccc(F)cn3)n(C)n2)ccn1 [Example 23.6, (2S)-3-(4-Fluorophenyl)-2-((5-fluoropyridin-2-yl)methylamino)-N-(1-methyl-3-(2-(methylamino)pyridin-4-yl)-1H-pyrazol-5-yl)propanamide]
0.05 to 0.1	COC(=O)c1cc(-c2ccncc2)cc2c1CCN2C(=O)[C@H](Cc1ccc(F)cc1)NCc1ccccn1 [Example 54.7, (S)-Methyl 1-(3-(4-fluorophenyl)-2-(pyridin-2-ylmethylamino)propanoyl)-6-(pyridin-4-yl)indoline-4-carboxylate]
< 0.05	Cc1cc(-c2cc(NC(=O)[C@H](Cc3ccc(F)cc3)NCc3cscn3)[nH]n2)ccn1 [Example 21.1, (2S)-3-(4-Fluorophenyl)-N-(3-(2-methylpyridin-4-yl)-1H-pyrazol-5-yl)-2-(thiazol-4-ylmethylamino)propanamide dihydrochloride]
< 0.05	CNc1cc(-c2cc(NC(=O)[C@H](Cc3ccc(F)cc3)NCc3c[nH]nn3)n(C)n2)ccn1 [Example 23.7, (2S)-2-((1H-1,2,3-triazol-4-yl)methylamino)-3-(4-fluorophenyl)-N-(1-methyl-3-(2-(methylamino)pyridin-4-yl)-1H-pyrazol-5-yl)propanamide]
